Tests used:
Test in all cases: SILAC LC-MS ABPP
Format in all cases: cell-based
Settings in all cases: 25 μM 2 h, live DM93 cells
Q9H009 = Q9H009 (Homo sapiens, UniProt Q9H009)
How it was run: (§1)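 Ligand engagement is measured as loss of HHS-475 probe labelling at specific tyrosines. SILAC DM93 melanoma cells were treated in situ (25 μM ligand vs DMSO, 2 h, 37 °C; then 100 μM probe, 2 h), and modified peptides were quantified by high-resolution LC-MS/MS after desthiobiotin tagging and avidin capture.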

P08238 = target: T1, P08238 (Homo sapiens, UniProt P08238)
T1 construct: endogenous in cells; host or cells: DM93 cells (SILAC)
How it was run: as §1

Q92974 = target: T2, Q92974 (Homo sapiens, UniProt Q92974)
T2 construct: endogenous in cells; host or cells: DM93 cells (SILAC), live-cell treatment
How it was run: as §1

Q96C86 = target: T3, Q96C86 (Homo sapiens, UniProt Q96C86)
T3 construct: endogenous in cells; host or cells: DM93 cells (SILAC), treated live; soluble proteome analysed
How it was run: as §1

P13010 = target: T4, P13010 (Homo sapiens, UniProt P13010)
T4 construct: endogenous in cells; host or cells: DM93 cells (SILAC)
How it was run: as §1

P50502 = target: T5, P50502 (Homo sapiens, UniProt P50502)
T5 construct: endogenous in cells; host or cells: DM93 cells (SILAC)
How it was run: as §1

Q9BWT3 = target: T6, Q9BWT3 (Homo sapiens, UniProt Q9BWT3)
T6 construct: endogenous in cells; host or cells: DM93 cells (SILAC), treated live; soluble proteome analysed
How it was run: as §1

P22059 = target: T7, P22059 (Homo sapiens, UniProt P22059)
T7 construct: endogenous in cells; host or cells: DM93 (SILAC)
How it was run: as §1

Q16836 = target: T8, Q16836 (Homo sapiens, UniProt Q16836)
T8 construct: performing SuTEx compound screening directly in cells; endogenous in cells; host or cells: DM93 cells (SILAC), soluble fraction
How it was run: as §1

P54578 = target: T9, P54578 (Homo sapiens, UniProt P54578)
T9 construct: endogenous in cells; host or cells: DM93 cells (SILAC)
How it was run: as §1

O43852 = target: T10, O43852 (Homo sapiens, UniProt O43852)
T10 construct: endogenous in cells; host or cells: DM93
How it was run: as §1

P78537 = target: T11, P78537 (Homo sapiens, UniProt P78537)
T11 construct: performing SuTEx compound screening directly in cells; endogenous in cells; host or cells: DM93 cells (SILAC)
How it was run: as §1

P53992 = target: T12, P53992 (Homo sapiens, UniProt P53992)
T12 construct: endogenous in cells; host or cells: DM93 cells (SILAC)
How it was run: as §1

Q14247 = target: T13, Q14247 (Homo sapiens, UniProt Q14247)
T13 construct: performing SuTEx compound screening directly in cells; endogenous in cells; host or cells: DM93 cells (SILAC), soluble fraction
How it was run: as §1

O95453 = target: T14, O95453 (Homo sapiens, UniProt O95453)
T14 construct: endogenous in cells; host or cells: DM93 cells (SILAC)
How it was run: as §1

Q13428 = target: T15, Q13428 (Homo sapiens, UniProt Q13428)
T15 construct: performing SuTEx compound screening directly in cells; endogenous in cells; host or cells: DM93 cells (SILAC), soluble fraction
How it was run: as §1

O14777 = target: T16, O14777 (Homo sapiens, UniProt O14777)
T16 construct: endogenous in cells; host or cells: DM93
How it was run: as §1

P50749 = target: T17, P50749 (Homo sapiens, UniProt P50749)
T17 construct: Probe-modified proteins from the soluble fraction were conjugated to a desthiobiotin-azide tag; endogenous in cells; host or cells: DM93 cells (SILAC)
How it was run: as §1

T10 sequence (O43852 20-315): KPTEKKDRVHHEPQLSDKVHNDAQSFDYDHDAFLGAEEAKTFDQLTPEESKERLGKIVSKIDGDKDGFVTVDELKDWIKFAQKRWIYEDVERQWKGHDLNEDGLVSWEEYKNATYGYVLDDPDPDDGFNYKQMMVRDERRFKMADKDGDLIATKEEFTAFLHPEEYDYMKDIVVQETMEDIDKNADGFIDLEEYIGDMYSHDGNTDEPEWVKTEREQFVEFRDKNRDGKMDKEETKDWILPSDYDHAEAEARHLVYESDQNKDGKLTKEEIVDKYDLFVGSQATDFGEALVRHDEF
T17 sequence (P50749 whole entry): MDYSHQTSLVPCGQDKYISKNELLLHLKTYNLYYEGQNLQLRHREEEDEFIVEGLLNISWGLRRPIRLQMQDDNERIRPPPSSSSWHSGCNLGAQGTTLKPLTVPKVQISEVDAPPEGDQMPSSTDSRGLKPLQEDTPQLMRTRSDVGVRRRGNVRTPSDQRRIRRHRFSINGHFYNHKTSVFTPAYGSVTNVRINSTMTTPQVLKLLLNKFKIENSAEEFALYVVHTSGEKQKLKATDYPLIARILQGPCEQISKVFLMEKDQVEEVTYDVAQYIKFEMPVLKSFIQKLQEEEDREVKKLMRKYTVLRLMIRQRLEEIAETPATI
T9 sequence (P54578 whole entry): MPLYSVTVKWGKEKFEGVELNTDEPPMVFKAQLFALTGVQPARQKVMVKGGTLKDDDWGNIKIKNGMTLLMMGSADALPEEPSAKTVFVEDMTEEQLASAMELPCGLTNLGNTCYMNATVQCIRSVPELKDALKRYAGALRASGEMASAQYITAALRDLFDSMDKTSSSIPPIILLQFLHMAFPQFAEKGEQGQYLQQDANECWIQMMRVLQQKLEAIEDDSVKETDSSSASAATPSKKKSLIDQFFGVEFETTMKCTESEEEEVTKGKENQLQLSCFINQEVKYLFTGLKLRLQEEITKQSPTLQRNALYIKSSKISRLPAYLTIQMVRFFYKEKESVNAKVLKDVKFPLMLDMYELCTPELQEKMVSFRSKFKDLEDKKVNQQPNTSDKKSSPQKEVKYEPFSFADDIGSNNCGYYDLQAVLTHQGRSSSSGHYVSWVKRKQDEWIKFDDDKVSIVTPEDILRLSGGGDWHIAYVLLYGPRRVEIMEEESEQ
T6 sequence (Q9BWT3 whole entry): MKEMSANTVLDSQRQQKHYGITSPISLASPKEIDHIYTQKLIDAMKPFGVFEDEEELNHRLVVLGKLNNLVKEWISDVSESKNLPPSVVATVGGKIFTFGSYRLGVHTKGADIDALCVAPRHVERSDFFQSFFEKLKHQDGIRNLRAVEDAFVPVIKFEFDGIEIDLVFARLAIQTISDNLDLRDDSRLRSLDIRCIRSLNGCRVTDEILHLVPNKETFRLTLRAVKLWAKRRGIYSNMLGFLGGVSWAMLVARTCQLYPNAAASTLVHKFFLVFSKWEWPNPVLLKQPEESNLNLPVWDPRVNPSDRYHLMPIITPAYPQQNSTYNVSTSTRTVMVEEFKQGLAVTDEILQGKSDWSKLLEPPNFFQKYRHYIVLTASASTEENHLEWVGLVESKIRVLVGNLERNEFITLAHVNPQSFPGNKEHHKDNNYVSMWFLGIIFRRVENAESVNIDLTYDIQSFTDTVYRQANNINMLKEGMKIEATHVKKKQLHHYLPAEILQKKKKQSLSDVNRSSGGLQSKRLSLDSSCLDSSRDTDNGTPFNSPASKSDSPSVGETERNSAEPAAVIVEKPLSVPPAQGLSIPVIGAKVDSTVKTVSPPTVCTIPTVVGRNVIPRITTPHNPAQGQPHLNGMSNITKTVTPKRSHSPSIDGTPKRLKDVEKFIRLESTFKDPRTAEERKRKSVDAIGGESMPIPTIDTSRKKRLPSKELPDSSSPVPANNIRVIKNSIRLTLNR
T13 sequence (Q14247 whole entry): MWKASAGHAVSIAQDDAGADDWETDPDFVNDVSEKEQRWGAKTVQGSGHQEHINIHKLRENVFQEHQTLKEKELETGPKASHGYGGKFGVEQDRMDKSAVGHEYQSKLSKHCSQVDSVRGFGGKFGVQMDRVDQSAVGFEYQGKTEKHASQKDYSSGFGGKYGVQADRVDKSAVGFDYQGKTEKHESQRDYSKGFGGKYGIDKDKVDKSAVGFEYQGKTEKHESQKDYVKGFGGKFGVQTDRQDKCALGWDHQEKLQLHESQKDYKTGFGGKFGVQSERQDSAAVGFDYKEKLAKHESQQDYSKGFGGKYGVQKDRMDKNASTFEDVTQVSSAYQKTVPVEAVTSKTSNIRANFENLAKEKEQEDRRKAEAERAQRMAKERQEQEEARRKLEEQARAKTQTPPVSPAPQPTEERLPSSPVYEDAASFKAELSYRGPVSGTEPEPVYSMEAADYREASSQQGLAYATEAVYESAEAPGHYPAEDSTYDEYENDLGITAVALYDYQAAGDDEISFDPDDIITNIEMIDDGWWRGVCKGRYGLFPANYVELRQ
T15 sequence (Q13428 whole entry): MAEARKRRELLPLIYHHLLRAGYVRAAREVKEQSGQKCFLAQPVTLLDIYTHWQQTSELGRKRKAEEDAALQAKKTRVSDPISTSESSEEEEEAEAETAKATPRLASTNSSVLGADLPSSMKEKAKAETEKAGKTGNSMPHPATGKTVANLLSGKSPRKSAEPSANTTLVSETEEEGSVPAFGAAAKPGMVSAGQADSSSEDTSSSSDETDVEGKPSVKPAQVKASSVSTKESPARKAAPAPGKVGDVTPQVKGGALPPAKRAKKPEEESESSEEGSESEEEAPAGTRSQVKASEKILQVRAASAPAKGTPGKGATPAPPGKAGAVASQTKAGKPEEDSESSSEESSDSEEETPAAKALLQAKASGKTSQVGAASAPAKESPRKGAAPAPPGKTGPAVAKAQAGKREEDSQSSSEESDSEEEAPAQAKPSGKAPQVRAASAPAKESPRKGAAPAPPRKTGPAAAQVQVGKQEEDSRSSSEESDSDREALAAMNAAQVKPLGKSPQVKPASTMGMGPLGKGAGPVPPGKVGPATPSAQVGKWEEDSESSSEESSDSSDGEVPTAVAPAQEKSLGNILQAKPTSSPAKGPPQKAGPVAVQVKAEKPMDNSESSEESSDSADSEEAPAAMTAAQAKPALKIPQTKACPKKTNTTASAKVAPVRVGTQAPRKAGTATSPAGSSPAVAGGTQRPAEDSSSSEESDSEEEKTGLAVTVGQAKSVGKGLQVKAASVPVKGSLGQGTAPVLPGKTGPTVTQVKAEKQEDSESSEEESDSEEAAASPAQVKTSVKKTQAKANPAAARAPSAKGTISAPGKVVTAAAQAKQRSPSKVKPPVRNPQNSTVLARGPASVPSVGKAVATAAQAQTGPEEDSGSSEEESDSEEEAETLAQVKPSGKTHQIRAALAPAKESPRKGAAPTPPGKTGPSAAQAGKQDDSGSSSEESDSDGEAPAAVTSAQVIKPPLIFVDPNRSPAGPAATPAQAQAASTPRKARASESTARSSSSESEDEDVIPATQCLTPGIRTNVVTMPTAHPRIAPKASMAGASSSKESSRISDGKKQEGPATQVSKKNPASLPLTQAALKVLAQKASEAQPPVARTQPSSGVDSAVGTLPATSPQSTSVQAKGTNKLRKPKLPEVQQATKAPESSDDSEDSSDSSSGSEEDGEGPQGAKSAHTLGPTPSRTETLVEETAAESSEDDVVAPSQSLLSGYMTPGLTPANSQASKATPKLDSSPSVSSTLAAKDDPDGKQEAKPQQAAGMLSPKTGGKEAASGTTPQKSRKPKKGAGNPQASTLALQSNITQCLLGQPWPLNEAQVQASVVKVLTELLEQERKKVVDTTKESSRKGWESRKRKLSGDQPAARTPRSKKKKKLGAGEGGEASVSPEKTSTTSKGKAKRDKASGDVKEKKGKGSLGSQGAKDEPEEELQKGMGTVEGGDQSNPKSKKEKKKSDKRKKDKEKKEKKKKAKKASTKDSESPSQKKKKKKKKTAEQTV
T11 sequence (P78537 whole entry): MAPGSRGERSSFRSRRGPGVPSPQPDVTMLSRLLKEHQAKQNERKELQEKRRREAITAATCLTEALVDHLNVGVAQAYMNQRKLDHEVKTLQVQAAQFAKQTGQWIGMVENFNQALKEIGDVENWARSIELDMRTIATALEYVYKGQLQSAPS
T2 sequence (Q92974 whole entry): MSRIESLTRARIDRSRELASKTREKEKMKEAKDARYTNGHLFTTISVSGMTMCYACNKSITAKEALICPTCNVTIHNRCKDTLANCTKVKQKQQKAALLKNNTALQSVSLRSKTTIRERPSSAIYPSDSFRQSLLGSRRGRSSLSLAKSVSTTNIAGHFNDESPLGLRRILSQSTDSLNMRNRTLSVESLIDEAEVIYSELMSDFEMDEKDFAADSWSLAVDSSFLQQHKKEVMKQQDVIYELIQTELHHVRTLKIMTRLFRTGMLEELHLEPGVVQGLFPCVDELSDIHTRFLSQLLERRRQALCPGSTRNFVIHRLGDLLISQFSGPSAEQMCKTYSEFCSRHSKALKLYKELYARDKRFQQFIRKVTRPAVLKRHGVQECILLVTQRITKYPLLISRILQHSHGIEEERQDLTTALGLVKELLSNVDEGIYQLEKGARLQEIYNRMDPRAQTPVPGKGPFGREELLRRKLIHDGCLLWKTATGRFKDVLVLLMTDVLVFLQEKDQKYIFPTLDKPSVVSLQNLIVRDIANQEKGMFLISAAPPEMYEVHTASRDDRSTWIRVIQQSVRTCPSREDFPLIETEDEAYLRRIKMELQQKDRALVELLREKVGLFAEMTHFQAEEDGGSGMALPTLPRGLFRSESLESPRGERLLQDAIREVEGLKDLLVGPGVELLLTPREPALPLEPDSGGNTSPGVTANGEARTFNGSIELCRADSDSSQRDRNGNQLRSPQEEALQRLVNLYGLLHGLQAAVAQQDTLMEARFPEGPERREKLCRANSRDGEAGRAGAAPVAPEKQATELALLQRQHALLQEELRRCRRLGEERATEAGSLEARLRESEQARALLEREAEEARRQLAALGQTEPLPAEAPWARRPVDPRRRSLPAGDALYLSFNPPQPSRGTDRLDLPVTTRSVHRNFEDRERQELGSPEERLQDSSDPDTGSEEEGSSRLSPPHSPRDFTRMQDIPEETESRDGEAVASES

Compound: O=C(NC1CC1)c1ccc(S(=O)(=O)n2cncn2)cc1 [HHS-0101, 4-((1H-1,2,4-triazol-1-yl)sulfonyl)-N-cyclopropylbenzamide]
- liganded tyrosine site 112 (Q9H009): HHS0101.Y|HHS0201.Y|HHS0301.Y|HHS0401.Y|HHS0701.Y (tyrosine sites that showed >80% reductions (SR >5) in probe labeling in cells treated with compounds (liganded sites))
- liganded tyrosine site 430 (P08238): HHS0101.Y|HHS0201.Y|HHS0301.Y|HHS0401.Y (tyrosine sites that showed >80% reductions (SR >5) in probe labeling in cells treated with compounds (liganded sites))
- liganded tyrosine site 894 (Q92974): HHS0101.Y|HHS0401.Y (tyrosine sites that showed >80% reductions (SR >5) in probe labeling in cells treated with compounds (liganded sites))
- liganded tyrosine site 116 (Q96C86): HHS0101.Y|HHS0401.Y (tyrosine sites that showed >80% reductions (SR >5) in probe labeling in cells treated with compounds (liganded sites))

Compound: O=C(NCC1CC1)c1ccc(S(=O)(=O)n2cncn2)cc1 [HHS-0201, 4-((1H-1,2,4-triazol-1-yl)sulfonyl)-N-(cyclopropylmethyl)benzamide]
- liganded tyrosine site 295 (P13010): HHS0201.Y (tyrosine sites that showed >80% reductions (SR >5) in probe labeling in cells treated with compounds (liganded sites))
- liganded tyrosine site 213 (P50502): HHS0201.Y (tyrosine sites that showed >80% reductions (SR >5) in probe labeling in cells treated with compounds (liganded sites))
- liganded tyrosine site 326 (Q9BWT3): HHS0201.Y|HHS0701.Y (tyrosine sites that showed >80% reductions (SR >5) in probe labeling in cells treated with compounds (liganded sites))
- liganded tyrosine site 764 (P22059): HHS0201.Y|HHS0701.Y (tyrosine sites that showed >80% reductions (SR >5) in probe labeling in cells treated with compounds (liganded sites))
- liganded tyrosine site 264 (Q16836): HHS0201.Y|HHS0401.Y|HHS0701.Y (tyrosine sites that showed >80% reductions (SR >5) in probe labeling in cells treated with compounds (liganded sites))
- liganded tyrosine site 401 (P54578): HHS0201.Y (tyrosine sites that showed >80% reductions (SR >5) in probe labeling in cells treated with compounds (liganded sites))
- liganded tyrosine site 294 (O43852): HHS0201.Y (tyrosine sites that showed >80% reductions (SR >5) in probe labeling in cells treated with compounds (liganded sites))

Compound: O=C(NC1CCCCC1)c1ccc(S(=O)(=O)n2cncn2)cc1 [HHS-0301, 4-((1H-1,2,4-triazol-1-yl)sulfonyl)-N-cyclohexylbenzamide]
- liganded tyrosine site 78 (P78537): HHS0301.Y|HHS0401.Y|HHS0701.Y (tyrosine sites that showed >80% reductions (SR >5) in probe labeling in cells treated with compounds (liganded sites))
- liganded tyrosine site 300 (P53992): HHS0301.Y (tyrosine sites that showed >80% reductions (SR >5) in probe labeling in cells treated with compounds (liganded sites))
- liganded tyrosine site 154 (Q14247): HHS0301.Y|HHS0401.Y (tyrosine sites that showed >80% reductions (SR >5) in probe labeling in cells treated with compounds (liganded sites))

Compound: O=C(NCc1ccccc1)c1ccc(S(=O)(=O)n2cncn2)cc1 [HHS-0401, 4-((1H-1,2,4-triazol-1-yl)sulfonyl)-N-benzylbenzamide]
- liganded tyrosine site 161 (O95453): HHS0401.Y (tyrosine sites that showed >80% reductions (SR >5) in probe labeling in cells treated with compounds (liganded sites))
- liganded tyrosine site 15 (Q13428): HHS0401.Y (tyrosine sites that showed >80% reductions (SR >5) in probe labeling in cells treated with compounds (liganded sites))

Compound: O=C(c1ccc(S(=O)(=O)n2cncn2)cc1)N1CCC(c2ccccc2)CC1 [HHS-0701, (4-((1H-1,2,4-triazol-1-yl)sulfonyl)phenyl)(4-phenylpiperidin-1-yl)methanone]
- liganded tyrosine site 310 (O14777): HHS0701.Y (tyrosine sites that showed >80% reductions (SR >5) in probe labeling in cells treated with compounds (liganded sites))
- liganded tyrosine site 270 (P50749): HHS0701.Y (tyrosine sites that showed >80% reductions (SR >5) in probe labeling in cells treated with compounds (liganded sites))

Reference: patent US20240210412A1, “SULFONYL-TRIAZOLE COMPOUNDS USEFUL AS LIGANDS AND INHIBITORS OF PROSTAGLANDIN REDUCTASE 2” (University of Virginia Patent Foundation, priority 2021, published 2024)
